Data from patent publication US9932314B2, “Pyrazole compounds and their use as T-type calcium channel blockers” (IDORSIA PHARMACEUTICALS LTD, priority 2015, dated 2018).

Target: T1, voltage-dependent T-type calcium channel subunit alpha-1G (Cav3.2) (Homo sapiens, UniProt O95180)
T1 construct: expressed in transfected cells; host or cells: HEK293
Assay: FLIPR calcium flux assay, HEK293 cells recombinantly expressing Cav3.2
Format: cell-based
Settings: Cav3.2-channel, Fluo-4-AM, 3 min incubation, stimulation with 10 mM CaCl2
Method: In Vitro Methods—Measurement of Calcium Channel Flux by Means of FLIPR Assays.
HEK293 cells recombinantly expressing either voltage-dependent T-type calcium channel subunit […] (Cav3.2) or voltage-dependent L-type calcium channel subunit alpha-1C (Cav1.2) are assayed for calcium flux using the calcium indicator dye Fluo-4-AM (Molecular Devices) and FLIPR technology (Fluorometric Imaging Plate Reader, Molecular Devices) (Xie X, Van Deusen A L, Vitko I, Babu D A, Davies L A, Huynh N, Cheng H, Yang N, Barrett P Q, Perez-Reyes E. Validation of high throughput screening assays against three subtypes of Ca(v)3 T-type channels using molecular and pharmacologic approaches. Assay and Drug Development Technologies 2007, 5(2), 191-203). The HEK293 cells recombinantly expressing Cav3.2 are maintained in DMEM growth medium (Life Technologies) supplemented with 10% Fetal Bovine Serum (FBS), 100 U/ml penicilin (Life Technologies), 100 μg/ml streptomycin (Life Technologies) and 1 mg/ml G418 (Life Technologies). HEK293 cells recombinantly expressing Cav1.2 are maintained in DMEM growth medium (Life technologies) supplemented with 10% FBS, 0.1 mg/ml G418 (Life Technologies), 0.1 mg/ml hygromycin (Life Technologies) and 40 ug/ml zeocin (Life Technologies).
The seeded plates are incubated overnight at 37° C.
The cells are then washed three times with assay buffer (HBSS 1×; 0.375 g/L NaHCO3; 20 mM Hepes; 1% FBS; pH 7.4) and allowed to rest in 50 μl of wash buffer for 30 minutes.
Stock solutions of test compounds are prepared to a concentration of 10 mM in DMSO. For the Cav3.2 assay, serial dilutions of the compounds are prepared in TEAC buffer (100 mM tetraethylammonium chloride; 20 mM Hepes; 2.5 mM CaCl2; 5 mM KCl; 1 mM MgCl2; 1% FBS; pH 7.2), for the Cav1.2 assay serial dilutions are prepared in assay buffer. […] The compounds are incubated with the cells for 3 minutes and Ca2+ entry is stimulated by adding either CaCl2 to a final concentration of 10 mM (Cav3.2 assay) or by adding KCl to a final concentration of 20 mM (Cav1.2 assay). The kinetics of fluorescence increase are recorded for every well and the area under the fluorescence trace for every compound concentration is used to generate inhibition curves using non-linear regression sigmoidal concentration-response curve analysis with in-house software.

T1 sequence (O95180 whole entry): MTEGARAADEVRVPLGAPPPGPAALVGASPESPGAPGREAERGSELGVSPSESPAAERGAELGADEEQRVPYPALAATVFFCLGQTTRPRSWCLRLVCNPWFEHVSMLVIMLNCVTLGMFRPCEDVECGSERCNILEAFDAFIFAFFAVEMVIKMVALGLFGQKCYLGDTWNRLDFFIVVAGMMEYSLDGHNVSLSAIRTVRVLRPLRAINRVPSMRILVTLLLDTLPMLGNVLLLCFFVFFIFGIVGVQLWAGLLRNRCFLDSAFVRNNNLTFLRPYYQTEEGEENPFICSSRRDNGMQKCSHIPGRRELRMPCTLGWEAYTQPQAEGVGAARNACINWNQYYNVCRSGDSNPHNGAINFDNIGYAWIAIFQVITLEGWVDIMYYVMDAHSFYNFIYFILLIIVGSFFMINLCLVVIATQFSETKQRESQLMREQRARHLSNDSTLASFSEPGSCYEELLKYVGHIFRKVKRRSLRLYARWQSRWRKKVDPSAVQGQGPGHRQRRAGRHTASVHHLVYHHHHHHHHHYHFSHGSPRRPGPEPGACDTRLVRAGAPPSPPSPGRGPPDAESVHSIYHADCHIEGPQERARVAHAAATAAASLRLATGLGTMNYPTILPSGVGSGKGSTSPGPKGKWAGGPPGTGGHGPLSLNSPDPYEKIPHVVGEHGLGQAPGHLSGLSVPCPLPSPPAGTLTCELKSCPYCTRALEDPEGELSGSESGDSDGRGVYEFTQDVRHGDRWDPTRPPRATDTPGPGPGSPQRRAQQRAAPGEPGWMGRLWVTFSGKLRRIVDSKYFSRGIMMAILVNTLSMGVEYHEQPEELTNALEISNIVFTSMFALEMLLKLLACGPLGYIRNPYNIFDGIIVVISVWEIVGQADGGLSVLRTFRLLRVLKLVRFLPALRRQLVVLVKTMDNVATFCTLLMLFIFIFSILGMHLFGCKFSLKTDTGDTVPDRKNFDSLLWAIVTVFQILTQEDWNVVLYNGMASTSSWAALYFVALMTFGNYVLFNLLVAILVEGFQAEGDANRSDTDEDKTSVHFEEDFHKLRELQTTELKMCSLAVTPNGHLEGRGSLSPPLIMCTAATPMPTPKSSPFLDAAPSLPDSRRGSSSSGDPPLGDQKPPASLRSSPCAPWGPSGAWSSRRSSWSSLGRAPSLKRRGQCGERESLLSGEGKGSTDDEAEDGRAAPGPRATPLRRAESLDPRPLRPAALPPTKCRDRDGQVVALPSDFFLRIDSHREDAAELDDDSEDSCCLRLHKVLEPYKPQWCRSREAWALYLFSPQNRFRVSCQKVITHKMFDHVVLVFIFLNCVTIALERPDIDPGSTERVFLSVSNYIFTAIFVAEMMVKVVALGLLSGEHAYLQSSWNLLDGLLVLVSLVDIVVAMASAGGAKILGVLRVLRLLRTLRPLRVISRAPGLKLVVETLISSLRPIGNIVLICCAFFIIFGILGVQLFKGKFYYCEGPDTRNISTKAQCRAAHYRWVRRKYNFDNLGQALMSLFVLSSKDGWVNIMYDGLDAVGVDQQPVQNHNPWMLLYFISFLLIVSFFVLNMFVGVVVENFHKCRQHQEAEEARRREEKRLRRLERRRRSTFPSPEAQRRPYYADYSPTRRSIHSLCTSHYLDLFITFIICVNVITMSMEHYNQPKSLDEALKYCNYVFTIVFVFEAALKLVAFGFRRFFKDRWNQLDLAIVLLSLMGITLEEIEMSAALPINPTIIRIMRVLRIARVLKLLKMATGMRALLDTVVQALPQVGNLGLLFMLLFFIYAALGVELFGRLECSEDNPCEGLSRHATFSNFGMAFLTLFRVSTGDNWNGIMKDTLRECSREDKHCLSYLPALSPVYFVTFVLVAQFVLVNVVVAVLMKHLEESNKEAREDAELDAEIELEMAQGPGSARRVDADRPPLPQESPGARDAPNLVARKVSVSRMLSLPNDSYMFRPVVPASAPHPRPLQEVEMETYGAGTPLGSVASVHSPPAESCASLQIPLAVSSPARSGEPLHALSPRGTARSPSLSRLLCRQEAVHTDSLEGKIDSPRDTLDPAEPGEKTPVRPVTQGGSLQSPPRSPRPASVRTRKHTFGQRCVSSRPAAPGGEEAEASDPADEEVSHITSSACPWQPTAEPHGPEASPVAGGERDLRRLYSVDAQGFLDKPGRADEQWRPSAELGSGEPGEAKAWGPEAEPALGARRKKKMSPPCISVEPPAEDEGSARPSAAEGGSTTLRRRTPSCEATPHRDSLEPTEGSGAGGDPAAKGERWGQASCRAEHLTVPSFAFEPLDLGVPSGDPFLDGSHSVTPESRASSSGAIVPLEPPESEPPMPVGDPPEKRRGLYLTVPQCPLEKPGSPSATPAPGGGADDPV

| SMILES | IC50 [nM] |
| --- | --- |
| O=C(Cc1ccc(N2CC[C@H](F)C2)nc1)Nc1ccn(Cc2ccc(F)cc2)n1 [Example 155, N-[1-(4-Fluoro-benzyl)-1H-pyrazol-3-yl]-2-[6((S)-3-fluoro-pyrrolidin-1-yl)-pyridin-3-yl]-acetamide] | 70 |
| COc1ccc(Cn2ccc(NC(=O)Cc3ccc(N(C)C)cc3)n2)cc1C(F)(F)F [Example 29, 2-(4-Dimethylamino-phenyl)-N-[1-(4-methoxy-3-trifluoromethyl-benzyl)-1H-pyrazol-3-yl]-acetamide] | 25 |
| Cc1nc2ccc(CC(=O)Nc3ccn(Cc4ccc(F)c(F)c4)n3)cc2[nH]1 [Example 135, N-[1-(3,4-Difluoro-benzyl)-1H-pyrazol-3-yl]-2-(2-methyl-3H-benzoimidazol-5-yl)-acetamide] | 247 |
| CC(C)c1ccc(CC(=O)Nc2ccn(Cc3ccc(N4CCC4)cn3)n2)cc1 [Example 394, N-[1-(5-Azetidin-1-yl-pyridin-2-ylmethyl)-1H-pyrazol-3-yl]-2-(4-isopropyl-phenyl)-acetamide] | 126 |
| N#Cc1cc(Cn2ccc(NC(=O)Cc3ccc(S(F)(F)(F)(F)F)cc3)n2)ccc1F [Example 334, N-(1-(3-cyano-4-fluorobenzyl)-1H-pyrazol-3-yl)-2-(4-(pentafluoro-λ^6-sulfanyl)phenyl)acetamide] | 21 |
| O=C(Cc1ccc(-c2cnccn2)cc1)Nc1ccn(Cc2ccc(F)cc2)n1 [Example 81, N-[1-(4-Fluoro-benzyl)-1H-pyrazol-3-yl]-2-(4-pyrazin-2-yl-phenyl)-acetamide] | 131 |
| O=C(Cc1ccc(N2CC[C@@H](F)C2)nc1)Nc1ccn(Cc2ccc(F)cc2)n1 [Example 141, N-[1-(4-Fluoro-benzyl)-1H-pyrazol-3-yl]-2-[6-((R)-3-fluoro-pyrrolidin-1-yl)-pyridin-3-yl]-acetamide] | 35 |
| N#Cc1ccc(Cn2ccc(NC(=O)Cc3ccc(C4CC(F)(F)C4)cc3)n2)cc1 [Example 300, N-[1-(4-Cyano-benzyl)-1H-pyrazol-3-yl]-2-[4-(3,3-difluoro-cyclobutyl)-phenyl]-acetamide] | 7.5 |
| O=C(Cc1ccc2c(c1)OCC(=O)N2)Nc1ccn(Cc2ccc(F)c(F)c2)n1 [Example 208, N-[1-(3,4-Difluoro-benzyl)-1H-pyrazol-3-yl]-2-(3-oxo-3,4-dihydro-2H-benzo[1,4]oxazin-7-yl)-acetamide] | 88 |
| COCCN(C)c1ccc(CC(=O)Nc2ccn(Cc3ccc(F)c(F)c3)n2)cn1 [Example 180, N-[1-(3,4-Difluoro-benzyl)-1H-pyrazol-3-yl]-2-{6-[(2-methoxy-ethyl)-methyl-amino]-pyridin-3-yl}-acetamide] | 33 |
| N#Cc1ccc(Cn2ccc(NC(=O)Cc3ccc(C4(C#N)CC(F)(F)C4)cc3)n2)nc1 [Example 390, 2-[4-(1-Cyano-3,3-difluoro-cyclobutyl)-phenyl]-N-[1-(5-cyano-pyridin-2-ylmethyl)-1H-pyrazol-3-yl]-acetamide] | 47 |
| N#Cc1ccc(Cn2ccc(NC(=O)Cc3ccc(OC4CC4)cc3)n2)cc1 [Example 64, N-[1-(4-Cyano-benzyl)-1H-pyrazol-3-yl]-2-(4-cyclopropoxy-phenyl)-acetamide] | 80 |
| CN1C(=O)COc2cc(CC(=O)Nc3ccn(Cc4ccc(F)c(F)c4)n3)ccc21 [Example 209, N-[1-(3,4-Difluoro-benzyl)-1H-pyrazol-3-yl]-2-(4-methyl-3-oxo-3,4-dihydro-2H-benzo[1,4]oxazin-7-yl)-acetamide] | 53 |
| Cc1cc(Cn2ccc(NC(=O)Cc3ccc(N(C)C)cc3)n2)ccc1F [Example 30, 2-(4-Dimethylamino-phenyl)-N-[1-(4-fluoro-3-methyl-benzyl)-1H-pyrazol-3-yl]-acetamide] | 8.6 |
| O=C(Cc1ccc(N2CCC(F)(F)C2)cc1)Nc1ccn(Cc2ccc(F)cc2)n1 [Example 77, 2-[4-(3,3-Difluoro-pyrrolidin-1-yl)-phenyl]-N-[1-(4-fluoro-benzyl)-1H-pyrazol-3-yl]-acetamide] | 9.1 |
| N#Cc1c(F)cc(Cn2ccc(NC(=O)Cc3ccc(OCC4(F)COC4)cc3)n2)cc1F [Example 361, N-[1-(4-Cyano-3,5-difluoro-benzyl)-1H-pyrazol-3-yl]-2-[4-(3-fluoro-oxetan-3-ylmethoxy)-phenyl]-acetamide] | 80 |

| SMILES | IC50 [nM] |
| --- | --- |
| CC(C)(C#N)c1ccc(CC(=O)Nc2ccn(Cc3ccc(C#N)cn3)n2)cc1 [Example 337, 2-[4-(Cyano-dimethyl-methyl)-phenyl]-N-[1-(5-cyano-pyridin-2-ylmethyl)-1H-pyrazol-3-yl]-acetamide] | 168 |
| Cc1ccc(Cn2ccc(NC(=O)Cc3ccc(C4(C(F)(F)F)CC4)cc3)n2)nc1C#N [Example 372, N-[1-(6-Cyano-5-methyl-pyridin-2-ylmethyl)-1H-pyrazol-3-yl]-2-[4-(1-trifluoromethyl-cyclopropyl)-phenyl]-acetamide] | 38 |
| CCN(C)c1ccc(CC(=O)Nc2ccn(Cc3ccc(F)c(F)c3)n2)cn1 [Example 172, N-[1-(3,4-Difluoro-benzyl)-1H-pyrazol-3-yl]-2-[6-(ethyl-methyl-amino)-pyridin-3-yl]-acetamide] | 15 |
| CC1(COc2ccc(CC(=O)Nc3ccn(Cc4ccc(C#N)cn4)n3)cc2)COC1 [Example 284, N-[1-(5-Cyano-pyridin-2-ylmethyl)-1H-pyrazol-3-yl]-2-[4-(3-methyl-oxetan-3-ylmethoxy)-phenyl]-acetamide] | 3070 |
| COc1ccc(Cn2ccc(NC(=O)Cc3ccc(N4CCC4)nc3)n2)cc1 [Example 101, 2-(6-Azetidin-1-yl-pyridin-3-yl)-N-[1-(4-methoxy-benzyl)-1H-pyrazol-3-yl]-acetamide] | 925 |
| CC(C)Cc1ccc(CC(=O)Nc2ccn(Cc3ccc(F)c(F)c3)n2)cc1C#N [Example 393, 2-(3-Cyano-4-isobutyl-phenyl)-N-[1-(3,4-difluoro-benzyl)-1H-pyrazol-3-yl]-acetamide] | 51 |
| Cn1ccc2cc(CC(=O)Nc3ccn(Cc4ccc(C#N)cn4)n3)ccc21 [Example 301, N-[1-(5-Cyano-pyridin-2-ylmethyl)-1H-pyrazol-3-yl]-2-(1-methyl-1H-indol-5-yl)-acetamide] | 71 |
| O=C(Cc1ccc(N2CC(F)(F)C2)cc1)Nc1ccn(Cc2ccc(F)cc2)n1 [Example 49, 2-[4-(3,3-Difluoro-azetidin-1-yl)-phenyl]-N-[1-(4-fluoro-benzyl)-H-pyrazol-3-yl]-acetamide] | 9.2 |
| N#Cc1ccc(Cn2ccc(NC(=O)Cc3ccc(OC4COC4)cc3)n2)cc1 [Example 251, N-[1-(4-Cyano-benzyl)-1H-pyrazol-3-yl]-2-[4-(oxetan-3-yloxy)-phenyl]-acetamide] | 303 |
| O=C(Cc1cnc(OCC(F)(F)F)c(F)c1)Nc1ccn(Cc2ccc(F)c(F)c2)n1 [Example 95, N-[1-(3,4-Difluoro-benzyl)-1H-pyrazol-3-yl]-2-[5-fluoro-6-(2,2,2-trifluoro-ethoxy)-pyridin-3-yl]-acetamide] | 99 |
| CN(C)c1ccc(CC(=O)Nc2ccn(Cc3ccc(F)cc3)n2)cn1 [Example 4, 2-(6-Dimethylamino-pyridin-3-yl)-N-[1-(4-fluoro-benzyl)-1H-pyrazol-3-yl]-acetamide] | 82 |
| Cc1cc(CC(=O)Nc2ccn(Cc3ccc(F)c(C#N)c3)n2)ccc1OCC(F)(F)F [Example 343, N-[1-(3-Cyano-4-fluoro-benzyl)-1H-pyrazol-3-yl]-2-[3-methyl-4-(2,2,2-trifluoro-ethoxy)-phenyl]-acetamide] | 4.5 |
| COc1ccc(Cn2ccc(NC(=O)Cc3ccc(N4CC(F)C4)nc3)n2)cc1 [Example 163, 2-[6-(3-Fluoro-azetidin-1-yl)-pyridin-3-yl]-N-[1-(4-methoxy-benzyl)-1H-pyrazol-3-yl]-acetamide] | 345 |
| CN(C)c1ccc(CC(=O)Nc2ccn(Cc3ccc(F)cn3)n2)cn1 [Example 150, 2-(6-Dimethylamino-pyridin-3-yl)-N-[1-(5-fluoro-pyridin-2-ylmethyl)-1H-pyrazol-3-yl]-acetamide] | 682 |
| O=C(Cc1ccc(-c2cncnc2)cc1)Nc1ccn(Cc2ccc(F)cc2)n1 [Example 86, N-[1-(4-Fluoro-benzyl)-1H-pyrazol-3-yl]-2-(4-pyrimidin-5-yl-phenyl)-acetamide] | 140 |
| COCCN(C)c1ccc(CC(=O)Nc2ccn(Cc3ccc(F)c(F)c3)n2)cc1 [Example 126] | 3.4 |
